Reference: ChEMBL document CHEMBL4052765, “Synthesis and antibacterial evaluation of novel 11-O-carbamoyl clarithromycin ketolides” (2017)
Converted amounts (≈) assume the structure as drawn.

What was measured:
Assay type in all cases: functional
[1] = tested on: Staphylococcus aureus; test: Antibacterial activity against […] Staphylococcus aureus ATCC 29213 after 24 h by NCCLS broth microdilution method; settings: ATCC 29213, 24 h
[2] = tested on: Streptococcus pneumoniae; test: Antibacterial activity against erythromycin-resistant Streptococcus pneumoniae B1 harboring erm gene after 24 h by NCCLS broth microdilution method; settings: B1, 24 h
[3] = tested on: Streptococcus pyogenes; test: Antibacterial activity against erythromycin-susceptible Streptococcus pyogenes after 24 h by NCCLS broth microdilution method
[4] = tested on: Pseudomonas aeruginosa; test: Antibacterial activity against penicillin-susceptible Pseudomonas aeruginosa ATCC 27853 after 24 h by NCCLS broth microdilution method; settings: ATCC 27853, 24 h
[5] = tested on: Staphylococcus aureus; test: Antibacterial activity against erythromycin-susceptible Staphylococcus aureus ATCC 25923 after 24 h by NCCLS broth microdilution method; settings: ATCC 25923, 24 h
[6] = tested on: Streptococcus pneumoniae; test: Antibacterial activity against erythromycin-resistant Streptococcus pneumoniae A22072 harboring mef gene after 24 h by NCCLS broth microdilution method; settings: A22072, 24 h
[7] = tested on: Escherichia coli; test: Antibacterial activity against penicillin-susceptible Escherichia coli ATCC 25922 after 24 h by NCCLS broth microdilution method; settings: ATCC 25922, 24 h
[8] = tested on: Streptococcus pyogenes; test: Antibacterial activity against erythromycin-resistant Streptococcus pyogenes R1 after 24 h by NCCLS broth microdilution method; settings: R1, 24 h
[9] = tested on: Bacillus subtilis; test: Antibacterial activity against penicillin-susceptible Bacillus subtilis ATCC 9372 after 24 h by NCCLS broth microdilution method; settings: ATCC 9372, 24 h
[10] = tested on: Streptococcus pneumoniae; test: Antibacterial activity against erythromycin-resistant Streptococcus pneumoniae AB11 harboring harboring mef and erm gene after 24 h by NCCLS broth microdilution method; settings: AB11, 24 h
[11] = tested on: Streptococcus pneumoniae; test: Potency index, ratio of azithromycin MIC to compound MIC against erythromycin-resistant Streptococcus pneumoniae A22072
[12] = tested on: Streptococcus pneumoniae; test: Potency index, ratio of clarithromycin MIC to compound MIC against erythromycin-resistant Streptococcus pneumoniae A22072
[13] = tested on: Staphylococcus aureus; test: Potency index, ratio of clarithromycin MIC to compound MIC against […] Staphylococcus aureus ATCC 29213

Compound: CC[C@H]1OC(=O)[C@H](C)C(=O)[C@H](C)[C@@H](O[C@@H]2O[C@H](C)C[C@H](N(C)C)[C@H]2O)[C@](C)(OC)C[C@@H](C)C(=O)[C@H](C)[C@@H](OC(=O)NCCNC(=O)c2ccc(Cl)cc2)[C@]1(C)O
- MIC [1]: 128 µg/mL (≈ 158 µM)
- MIC [2]: 128 µg/mL (≈ 158 µM)
- MIC [3]: 1 µg/mL (≈ 1.23 µM)
- MIC [4]: 128 µg/mL (≈ 158 µM)
- MIC [5]: 16 µg/mL (≈ 19.7 µM)
- MIC [6]: 0.5 µg/mL (≈ 0.615 µM)
- MIC [7]: > 128 µg/mL
- MIC [8]: > 128 µg/mL
- MIC [9]: 0.25 µg/mL (≈ 0.308 µM)
- MIC [10]: 64 µg/mL (≈ 78.8 µM)
- Ratio [11]: 4

Compound: CC[C@H]1OC(=O)[C@H](C)C(=O)[C@H](C)[C@@H](O[C@@H]2O[C@H](C)C[C@H](N(C)C)[C@H]2O)[C@](C)(OC)C[C@@H](C)C(=O)[C@H](C)[C@@H](OC(=O)NCCNC(=O)c2ccc([N+](=O)[O-])cc2N)[C@]1(C)O
- MIC [1]: 128 µg/mL (≈ 153 µM)
- MIC [2]: 128 µg/mL (≈ 153 µM)
- MIC [3]: 0.5 µg/mL (≈ 0.597 µM)
- MIC [4]: > 128 µg/mL
- MIC [5]: 8 µg/mL (≈ 9.55 µM)
- MIC [6]: 0.5 µg/mL (≈ 0.597 µM)
- MIC [7]: 128 µg/mL (≈ 153 µM)
- MIC [8]: > 128 µg/mL
- MIC [9]: 1 µg/mL (≈ 1.19 µM)
- MIC [10]: 64 µg/mL (≈ 76.4 µM)
- Ratio [11]: 4
- Ratio [12]: 8

Compound: CC[C@H]1OC(=O)[C@H](C)C(=O)[C@H](C)[C@@H](O[C@@H]2O[C@H](C)C[C@H](N(C)C)[C@H]2O)[C@](C)(OC)C[C@@H](C)C(=O)[C@H](C)[C@@H](OC(=O)NCCNC(=O)/C=C/c2cccc3ccccc23)[C@]1(C)O
- MIC [1]: 32 µg/mL (≈ 37.5 µM)
- MIC [2]: 128 µg/mL (≈ 150 µM)
- MIC [3]: 1 µg/mL (≈ 1.17 µM)
- MIC [4]: > 128 µg/mL
- MIC [5]: 16 µg/mL (≈ 18.7 µM)
- MIC [6]: 2 µg/mL (≈ 2.34 µM)
- MIC [7]: 128 µg/mL (≈ 150 µM)
- MIC [8]: 128 µg/mL (≈ 150 µM)
- MIC [9]: 2 µg/mL (≈ 2.34 µM)
- MIC [10]: 128 µg/mL (≈ 150 µM)

Compound: CC[C@H]1OC(=O)[C@H](C)C(=O)[C@H](C)[C@@H](O[C@@H]2O[C@H](C)C[C@H](N(C)C)[C@H]2O)[C@](C)(OC)C[C@@H](C)C(=O)[C@H](C)[C@@H](OC(=O)NCCNC(=O)/C=C/c2ccc(Cl)cc2)[C@]1(C)O
- MIC [1]: 64 µg/mL (≈ 76.3 µM)
- MIC [2]: 128 µg/mL (≈ 153 µM)
- MIC [3]: 2 µg/mL (≈ 2.39 µM)
- MIC [4]: > 128 µg/mL
- MIC [5]: 16 µg/mL (≈ 19.1 µM)
- MIC [6]: 0.5 µg/mL (≈ 0.596 µM)
- MIC [7]: > 128 µg/mL
- MIC [8]: > 128 µg/mL
- MIC [9]: 4 µg/mL (≈ 4.77 µM)
- MIC [10]: 128 µg/mL (≈ 153 µM)
- Ratio [11]: 4
- Ratio [12]: 8

Compound: CC[C@H]1OC(=O)[C@H](C)C(=O)[C@H](C)[C@@H](O[C@@H]2O[C@H](C)C[C@H](N(C)C)[C@H]2O)[C@](C)(OC)C[C@@H](C)C(=O)[C@H](C)[C@@H](OC(=O)NCCNC(=O)/C=C/c2ccco2)[C@]1(C)O
- MIC [1]: 16 µg/mL (≈ 20.2 µM)
- MIC [2]: 128 µg/mL (≈ 161 µM)
- MIC [3]: 4 µg/mL (≈ 5.04 µM)
- MIC [4]: 128 µg/mL (≈ 161 µM)
- MIC [5]: 64 µg/mL (≈ 80.6 µM)
- MIC [6]: 1 µg/mL (≈ 1.26 µM)
- MIC [7]: 128 µg/mL (≈ 161 µM)
- MIC [8]: > 128 µg/mL
- Ratio [13]: 4
- MIC [9]: 8 µg/mL (≈ 10.1 µM)
- MIC [10]: 128 µg/mL (≈ 161 µM)

Compound: CC[C@H]1OC(=O)[C@H](C)C(=O)[C@H](C)[C@@H](O[C@@H]2O[C@H](C)C[C@H](N(C)C)[C@H]2O)[C@](C)(OC)C[C@@H](C)C(=O)[C@H](C)[C@@H](OC(=O)NCCNC(=O)c2cc([N+](=O)[O-])cc([N+](=O)[O-])c2)[C@]1(C)O
- MIC [1]: 128 µg/mL (≈ 147 µM)
- MIC [2]: 128 µg/mL (≈ 147 µM)
- MIC [3]: 0.125 µg/mL (≈ 0.144 µM)
- MIC [4]: 128 µg/mL (≈ 147 µM)
- MIC [5]: 8 µg/mL (≈ 9.22 µM)
- MIC [6]: 0.5 µg/mL (≈ 0.576 µM)
- MIC [7]: 128 µg/mL (≈ 147 µM)
- MIC [8]: 128 µg/mL (≈ 147 µM)
- MIC [9]: 1 µg/mL (≈ 1.15 µM)
- MIC [10]: 64 µg/mL (≈ 73.7 µM)
- Ratio [11]: 4
- Ratio [12]: 8

Compound: CC[C@H]1OC(=O)[C@H](C)[C@@H](O[C@H]2C[C@@](C)(OC)[C@@H](O)[C@H](C)O2)[C@H](C)[C@@H](O[C@@H]2O[C@H](C)C[C@H](N(C)C)[C@H]2O)[C@](C)(O)C[C@@H](C)CN(C)[C@H](C)[C@@H](O)[C@]1(C)O [AZITHROMYCIN]
- MIC [1]: 8 µg/mL (≈ 10.7 µM)
- MIC [2]: > 128 µg/mL
- MIC [3]: 0.03 µg/mL (≈ 0.0401 µM)
- MIC [4]: 16 µg/mL (≈ 21.4 µM)
- MIC [5]: 0.25 µg/mL (≈ 0.334 µM)
- MIC [6]: 2 µg/mL (≈ 2.67 µM)
- MIC [7]: 16 µg/mL (≈ 21.4 µM)
- MIC [8]: > 128 µg/mL
- MIC [9]: 0.25 µg/mL (≈ 0.334 µM)
- MIC [10]: > 128 µg/mL

Compound: CC[C@H]1OC(=O)[C@H](C)[C@@H](O[C@H]2C[C@@](C)(OC)[C@@H](O)[C@H](C)O2)[C@H](C)[C@@H](O[C@@H]2O[C@H](C)C[C@H](N(C)C)[C@H]2O)[C@](C)(OC)C[C@@H](C)C(=O)[C@H](C)[C@@H](O)[C@]1(C)O [CLARITHROMYCIN]
- MIC [1]: 64 µg/mL (≈ 85.6 µM)
- MIC [2]: > 128 µg/mL
- MIC [3]: 0.03 µg/mL (≈ 0.0401 µM)
- MIC [4]: 64 µg/mL (≈ 85.6 µM)
- MIC [5]: 0.25 µg/mL (≈ 0.334 µM)
- MIC [6]: 4 µg/mL (≈ 5.35 µM)
- MIC [7]: 64 µg/mL (≈ 85.6 µM)
- MIC [8]: > 128 µg/mL
- MIC [9]: 0.25 µg/mL (≈ 0.334 µM)
- MIC [10]: 128 µg/mL (≈ 171 µM)
